The source of these data is ChEMBL document CHEMBL5550091 (2024).

Activity calls are given as the source filed them. The rule behind the calls is not given here.

Assay [1] in a line: Inhibition of recombinant N-terminal deca-His/SUMO tagged RTA (1 to 267 residues) (unknown origin) expressed in Escherichia coli BL21 (DE3) mediated ribosome depurination activity assessed as reduction in ribosomal RNA depurination preincubated with compound for 5 mins followed by addition of rat liver ribosomes and measured after 5 mins by qRT-PCR analysis. Format: subcellular. Background: Quantitative PCR measures a nucleic acid by following its amplification.

The nature of assay [2]: Displacement of BODIPY TMR-X-labeled P11 peptide from recombinant N-terminal deca-His/SUMO tagged RTA (1 to 267 residues) (unknown origin) expressed in Escherichia coli BL21 (DE3) assessed as inhibition constant incubated for 30 mins by competition binding based fluorescence polarization assay.
The nature of assay [3]: Displacement of BODIPY TMR-X-labeled P11 peptide from recombinant N-terminal deca-His/SUMO tagged RTA (1 to 267 residues) (unknown origin) expressed in Escherichia coli BL21 (DE3) incubated for 30 mins by competition binding based fluorescence polarization assay.
Assay [4] in a line: Inhibition of recombinant N-terminal deca-His/SUMO tagged RTA (1 to 267 residues) (unknown origin) expressed in Escherichia coli BL21 (DE3) mediated ribosome depurination activity assessed as maximal inhibition of cellular ribosomal RNA depurination preincubated with compound for 5 mins followed by addition of rat liver ribosomes and measured after 5 mins by qRT-PCR analysis relative to control. Conditions: time 10.0 min. Format: subcellular.

The nature of assay [5]: Inhibition of STX2A1 (unknown origin) mediated ribosomal depurination activity assessed as reduction in ribosomal RNA depurination preincubated with compound for 5 mins followed by addition of rat liver ribosomes and measured after 5 mins by qRT-PCR analysis. The format is subcellular, Ribosome.
Assay [6] is described as follows: cells. The conditions noted are these: A549, 2 h. The format is cell-based.
Assay [7] in a line: cells. The conditions noted are these: Vero, 2 h. The format is cell-based.

The IC50 is the concentration at which inhibition is half-maximal. As usually defined, the Ki is a dissociation constant, usually derived from enzyme kinetics or from competition with a known ligand. Turning to `O=C(O)c1ccc(-c2ccccc2)s1`, the IC50 in assay [1] came to 408 µM; in assay [3], 224 µM. Besides, the Ki in assay [2] came out at 58 µM.
Broadly, the EC50 is the concentration needed to bring the measured effect to its halfway point. A high value points to lower potency in that assay. `CC1(C)Cc2cc(C(=O)O)sc2-c2ccccc21`: the figures for the IC50 in assay [1] and in assay [5] were 23 µM and 83 µM, respectively. The Imax in assay [4] stood at 112%. Further, the EC50 amounted to 92 µM in assay [6] and 29 µM in assay [7].
As for `O=C(O)c1cc2c(s1)-c1ccccc1CC2`, the Imax in assay [4] was determined as 100%.
For the compound `NC(=O)c1cccc2c1-c1ccccc1C2=O`, the outcome in assay [3] was inactive.
`Cc1cccc(C)c1-c1ccc(C(=O)O)s1`: the IC50 in assay [1] was 45 µM; in assay [3], 31 µM. The Imax in assay [4] was determined as 102%.
Turning to H-RGWGHPSGYS-OH, the result in assay [3] was inactive.
In the case of `O=C(O)c1cc2c(s1)-c1cc(Cl)ccc1SC2`, the Ki in assay [2] amounted to 15 µM. Moreover, in assay [3], the IC50 turned out to be 59 µM.
On to `O=C(O)c1cc2c(s1)-c1ccc(F)cc1CC2`, for which the IC50 in assay [1] came to 32 µM; in assay [3] it was 17 µM. Also, in assay [4], the Imax is 104%.
Turning to H-SDDDMGFGLFD-OH, the IC50 in assay [1] came out at 31 µM; in assay [3], 4 µM. Besides, the Ki in assay [2] amounted to 1 µM.
